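48-hour exposure; five concentrations; linearly interpolated endpoints. GI50 = concentration required for 50% inhibition of growth.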 The source made the active and inactive calls. No stated cut-off is given here; in the data, active = GI50 up to about 1.1 µM and inactive = higher. Square brackets hold non-standard residues; d marks the D form. Peptide text beside a SMILES is read from it. * marks the point of attachment. X26 = COC1=CC(=O)N(C(=O)[C@@H](O*)C(C)C)[C@H]1Cc1ccccc1; NMeV = CN[C@H](C(=O)O)C(C)C; Hexanoyl = CCCCCC(=O)*
What was measured:
Assay in all cases: NCI anticancer screen, dose series, 48 h
NCI-H522 = tested on: NCI-H522
MDA-N = tested on: MDA-N
OVCAR-5 = tested on: OVCAR-5
EKVX = tested on: EKVX
Hs-578T = tested on: Hs-578T
MCF7 = tested on: MCF7
RPMI-8226 = tested on: RPMI-8226
CCRF-CEM = tested on: CCRF-CEM
SW-620 = tested on: SW-620
TK-10 = tested on: TK-10
SN12C = tested on: SN12C
HOP-62 = tested on: HOP-62
NCI-H460 = tested on: NCI-H460
LOX IMVI = tested on: LOX IMVI
SF-268 = tested on: SF-268
SR = tested on: SR
NCI-H226 = tested on: NCI-H226
HCC 2998 = tested on: HCC 2998
HL-60 = tested on: HL-60
HOP-92 = tested on: HOP-92

Measured: GI50

COC[C@@H](/N=C/c1ccc(OC)cc1)C(C)C
inactive: NCI-H522 > 100 µM | MDA-N > 100 µM | OVCAR-5 > 100 µM | EKVX > 100 µM | Hs-578T > 100 µM | MCF7 > 100 µM | RPMI-8226 > 100 µM | CCRF-CEM > 100 µM | SW-620 > 100 µM | TK-10 > 100 µM | SN12C > 100 µM | HOP-62 > 100 µM | NCI-H460 > 100 µM | LOX IMVI > 100 µM | SF-268 > 100 µM | SR > 100 µM

O=[N+]([O-])C(=C1NCCN1)C(Cl)=C(Cl)Cl
inactive: NCI-H522 > 100 µM | MDA-N > 100 µM | OVCAR-5 > 100 µM | EKVX > 100 µM | NCI-H226 > 100 µM | Hs-578T > 100 µM | MCF7 > 100 µM | RPMI-8226 > 100 µM | CCRF-CEM 52.6 µM | TK-10 > 100 µM | SN12C > 100 µM | HCC 2998 > 100 µM | HOP-62 > 100 µM | NCI-H460 > 100 µM | LOX IMVI > 100 µM | SF-268 > 100 µM | HL-60 62.2 µM | SR > 100 µM

O=C(COc1ccc(OCC(=O)N2C(=O)CC/C2=N\c2ccc(Cl)cc2)cc1)N1C(=O)CS/C1=N\c1ccc(Cl)cc1
inactive: NCI-H522 63.4 µM | MDA-N > 100 µM | OVCAR-5 > 100 µM | HOP-92 > 100 µM | EKVX 76.9 µM | NCI-H226 > 100 µM | Hs-578T > 100 µM | MCF7 35.3 µM | RPMI-8226 46.1 µM | SW-620 > 100 µM | TK-10 > 100 µM | SN12C > 100 µM | HCC 2998 > 100 µM | HOP-62 73.1 µM | NCI-H460 72.6 µM | LOX IMVI 25.2 µM | SF-268 > 100 µM | HL-60 37.2 µM

Nc1ccccc1N/C=C\C(=O)C(Cl)(Cl)Cl
inactive: NCI-H522 20.2 µM | MDA-N 16.6 µM | OVCAR-5 20.1 µM | HOP-92 19 µM | EKVX 15 µM | NCI-H226 82.6 µM | Hs-578T 48.8 µM | MCF7 14.5 µM | RPMI-8226 14.3 µM | CCRF-CEM 4.26 µM | SW-620 16.7 µM | TK-10 30.6 µM | SN12C 19 µM | HCC 2998 16.6 µM | HOP-62 19.3 µM | NCI-H460 31.3 µM | LOX IMVI 15.9 µM | SF-268 40.3 µM | HL-60 22.3 µM

CC1(C)OC(=O)C(C)(C)OC1=O
inactive: NCI-H522 > 100 µM | MDA-N > 100 µM | OVCAR-5 > 100 µM | HOP-92 > 100 µM | EKVX > 100 µM | NCI-H226 > 100 µM | Hs-578T > 100 µM | MCF7 > 100 µM | RPMI-8226 > 100 µM | CCRF-CEM > 100 µM | SW-620 > 100 µM | TK-10 > 100 µM | SN12C > 100 µM | HOP-62 > 100 µM | NCI-H460 > 100 µM | LOX IMVI > 100 µM | SF-268 > 100 µM | HL-60 > 100 µM | SR > 100 µM

C/C=C(\C)CC/C=C/CO[Si](C)(C)C(C)(C)C
inactive: NCI-H522 > 100 µM | MDA-N > 100 µM | OVCAR-5 > 100 µM | EKVX > 100 µM | NCI-H226 > 100 µM | Hs-578T > 100 µM | MCF7 40.1 µM | RPMI-8226 > 100 µM | CCRF-CEM 24.7 µM | SW-620 > 100 µM | TK-10 > 100 µM | SN12C > 100 µM | HCC 2998 > 100 µM | HOP-62 > 100 µM | NCI-H460 > 100 µM | LOX IMVI 22.3 µM | SF-268 > 100 µM | HL-60 32.6 µM | SR 28.9 µM

Cc1cnc2sn(-c3ccc(Oc4ccccc4)cc3)c(=O)c2c1
inactive: NCI-H522 5.58 µM | MDA-N 16.6 µM | OVCAR-5 18.4 µM | EKVX 13.4 µM | NCI-H226 18.2 µM | Hs-578T 21.1 µM | MCF7 22.4 µM | RPMI-8226 9.62 µM | CCRF-CEM 5.11 µM | SW-620 21.2 µM | TK-10 17.7 µM | SN12C 17.9 µM | HCC 2998 6.47 µM | HOP-62 12.9 µM | NCI-H460 7.41 µM | LOX IMVI 6.1 µM | SF-268 11.8 µM | HL-60 4.36 µM | SR 7.06 µM

CC(=O)OCC1OC(OC2CC3C(C)(C)C(O)CC[C@]3(C)C3CCC45CC4(CCC5[C@@H](C)CC(O)C(O)C(C)(C)O)[C@]23C)C(O)C(O)C1O (stereo partly drawn)
inactive: NCI-H522 > 10 µM | MDA-N > 10 µM | OVCAR-5 > 10 µM | HOP-92 > 10 µM | EKVX > 10 µM | NCI-H226 > 10 µM | Hs-578T > 10 µM | MCF7 > 10 µM | RPMI-8226 > 10 µM | CCRF-CEM > 10 µM | SW-620 > 10 µM | TK-10 > 10 µM | SN12C > 10 µM | HCC 2998 > 10 µM | HOP-62 > 10 µM | NCI-H460 > 10 µM | LOX IMVI > 10 µM | SF-268 > 10 µM | HL-60 > 10 µM

O=c1[nH]c(=O)n(CCOc2ccccc2)cc1Nc1ccccc1
inactive: NCI-H522 6.11 µM | MDA-N > 100 µM | OVCAR-5 > 100 µM | HOP-92 6.32 µM | EKVX > 100 µM | Hs-578T 52.5 µM | MCF7 > 100 µM | RPMI-8226 > 100 µM | CCRF-CEM > 100 µM | SW-620 > 100 µM | SN12C > 100 µM | HCC 2998 > 100 µM | HOP-62 22.3 µM | NCI-H460 > 100 µM | LOX IMVI > 100 µM | SF-268 43.3 µM | SR > 100 µM

CCCCCC(=O)N[C@H](C(=O)N[C@H](C(=O)N(C)[C@H](C(=O)N1CCC[C@H]1C(=O)N1CCC[C@H]1C(=O)O[C@H](C(=O)N1C(=O)C=C(OC)[C@@H]1Cc1ccccc1)C(C)C)C(C)C)C(C)C)C(C)C (Hexanoyl-VV[NMeV]PP-X26)
inactive: NCI-H522 > 100 µM | MDA-N 33.8 µM | OVCAR-5 93.5 µM | HOP-92 36.2 µM | EKVX 85.9 µM | NCI-H226 > 100 µM | Hs-578T 68.2 µM | MCF7 59.2 µM | RPMI-8226 84.1 µM | CCRF-CEM 48.6 µM | SW-620 > 100 µM | TK-10 > 100 µM | SN12C 94.6 µM | HCC 2998 > 100 µM | HOP-62 > 100 µM | NCI-H460 > 100 µM | LOX IMVI > 100 µM | SF-268 > 100 µM | HL-60 > 100 µM

From ChEMBL document CHEMBL1201862, “PubChem BioAssay data set” (2004)
